# Measurements: publication PMC8501799, “Constitutive signal bias mediated by the human GHRHR splice variant 1” (Proceedings of the National Academy of Sciences of the …, 2021)
# Tests used:
# GHRHR ΔECD = test: cAMP accumulation; type: cell-based, human
# Protocol: (§1) GHRH-stimulated cAMP accumulation was measured by a LANCE Ultra cAMP kit (PerkinElmer). Briefly, HEK293T cells (24 h after transfection with SV1 or GHRHR) or prostate cancer cells were digested by 0.2% (wt/vol) EDTA and washed once with Dulbecco’s phosphate-buffered saline (PBS). Cells were then resuspended with stimulation buffer (Hanks’ balanced salt solution [HBSS] supplemented with 5 mM HEPES, 0.5 mM IBMX, and 0.1% [wt/vol] bovine serum albumin [BSA], pH 7.4) to a density of 0.6 million cells per milliliter and added to 384-well white plates (3,000 cells per well). […] The reaction was stopped by adding 5 μL Eu-cAMP tracer and 5 μL ULight-anti-cAMP. After 1 h RT incubation, TR-FRET signals (excitation: 320 nm, emission: 615 and 665 nm) were measured by an Envision plate reader (PerkinElmer). cAMP concentrations were interpolated by a standard curve.
# (§2) All functional study data were analyzed using Prism 7 (GraphPad) and presented as means ± SEM from at least three independent experiments. Concentration-response curves were evaluated with a three-parameter logistic equation. The significance was determined with either two-tailed Student’s t test or one-way ANOVA, and P < 0.05 is considered statistically significant.
# Table S2. Effects of residue mutation or truncation in the ECD of GHRHR on GHRH-induced cAMP […]
# Mutant pEC50 Emax (% WT GHRHR) expression ΔLog (τ/KA) […]
# cAMP accumulation data were analyzed using a three-parameter logistic equation to determine pEC50 and Emax values. pEC50 is the negative logarithm of the molar concentration of agonist that induced half the maximal response. Emax for mutants is expressed as a percentage of the WT GHRHR. Data were analyzed by nonlinear regression using the operational model equation to determine t he logR values (logτ/KA, i.e., logarithm of the transduction ratio). τ is the effi cacy value of the agonist and was corrected by cell surface expression of the receptor. KA is dissociation constant. Changes in transduction ratio (ΔlogR) were calculated to determine the relative effectiveness of the mutants. All values are means ± S.E.M. of at le ast three ind ep en dent experiments (n = 3-5) conducted in quadruplicate. Statistical analysis was carried out by comparing the control responses in the WT GHRHR. **, P < 0.01 and ***, P < 0.001, determined by one-way
# SV1 F62A = test: cAMP accumulation; type: cell-based, human; details: Table S4, mean ± SEM
# Protocol: as §1, §2
# (§3) Table S4. Effects of residue mutation in the ligand-binding pocket of SV1 on GHRH-induced cAMP […]
# (§4) Mutant pEC50 Emax Cell surface expression ΔLog (τ/KA)
# (§5) (% WT GHRHR) (% WT GHRHR) cAMP accumulation data were analyzed using a three-parameter logistic equation to determine pEC50 and Emax values. pEC50 is the negative logarithm of the molar concentration of agonist that induced half the maximal response. Emax for mutants is expressed as a percentage of the WT GHRHR. Data were analyzed by nonlinear regression using the operational model equation to determine t he logR values (logτ/KA, i.e., logarithm of the transduction ratio). τ is the effi cacy value of the agonist and was corrected by cell surface expression of the receptor. KA is dissociation constant. Changes in transduction ratio (ΔlogR) were calculated to determine the relative effectiveness of the mutants. All values are means ± S.E.M. of four independent experiments (n = 4) conducted in quadruplicate. Statistical analysis was carried out by comparing the control responses in the WT-SV1. *, P < 0.05, **, P < 0.01 and ***, P < 0.001, determined by one-way
# SV1 L290A = test: cAMP accumulation; type: cell-based, human; details: Table S4, mean ± SEM
# Protocol: as §1, §2, §3, §4, §5
# SV1 L294A = test: cAMP accumulation; type: cell-based, human; details: Table S4, mean ± SEM
# Protocol: as §1, §2, §3, §4, §5
# SV1 S145A = test: cAMP accumulation; type: cell-based, human; details: Table S4, mean ± SEM
# Protocol: as §1, §2, §3, §4, §5
# SV1 Y69A = test: cAMP accumulation; type: cell-based, human; details: Table S4, mean ± SEM
# Protocol: as §1, §2, §3, §4, §5
# [1] = test system: GHRHR mutants (F82, F85, D274, E223, N296, L337, F338 to alanine); test: β-arrestin 1 recruitment (BRET), GHRHR single-point alanine mutants; type: cell-based, human; details: single residue to alanine; 250 μM GHRH; HEK293T; Fig. 5G
# Protocol: (§6) HEK293T cells were seeded at a density of 30,000 cells per well into 96-well culture plates pretreated with poly-D-lysine hydrobromide. After incubation for 24 h to reach 70% to 80% confluence, the cells were transiently transfected with HA-Flag-GHRHR-Rluc8 or HA-Flag-SV1-Rluc8 and β-arrestin 1/2-Venus at a 1:9 mass ratio using lipofectamine 3000 reagent (Invitrogen) and cultured for another 24 h. Thereafter, cells were washed once and incubated for 30 min at 37 °C with HBSS buffer (pH 7.4) supplemented with 0.1% BSA and 10 mM HEPES. Five micromolars of coelenterazine h (YEASEN Biotechnology) was then added and incubated for 5 min in the dark. The bioluminescence resonance energy transfer (BRET) signals were detected with an Envision plate reader by calculating the ratio of emission at 535 nm over emission at 470 nm.
# [2] = test system: GHRHR ECD mutants (L34, L62, F82, F85 to alanine); test: β-arrestin 1/2 recruitment (BRET), GHRHR ECD alanine mutants; type: cell-based, human; details: HEK293T
# Protocol: as §6
# cell cycle = test: Cell cycle analysis (propidium iodide, flow cytometry); type: cell-based; details: 1 μM GHRH, 6 h
# Protocol: Following the treatment, the cells were digested by trypsin and collected by centrifugation. Cell pellets were washed with PBS and fixed with 70% (vol/vol) ethanol at 4 °C overnight. Cells were again collected by centrifugation and washed twice with PBS. They were then resuspended in PBS containing 0.2% Triton X-100, 50 μg/mL propidium iodide (PI), and […] RNase A and incubated for 30 min at 4 °C in the dark. After incubation, fluorescence intensity was measured with a NovoCyte flow cytometer (Acea Biosciences). Cells were gated for PI staining and cell accumulation in G1, and S and G2/M phases were calculated using the NovoExpress software.
# SV1 mutants = test: cAMP accumulation, peptide-binding pocket mutants of SV1; type: cell-based, human; details: impairing contacts in the peptide-binding pocket; HEK293T; Fig. 4D
# Protocol: as §1
# [3] = HEK293T, LANCE Ultra cAMP, 30 min RT, 0.5 mM IBMX, n = 4 in quadruplicate
# [4] = HEK293T, n = 4 in quadruplicate
# [5] = operational model, τ corrected by cell surface expression, n = 4
smiles,measurement,setting,value
"CC[C@H](C)[C@H](NC(=O)[C@H](C)NC(=O)[C@H](CC(=O)O)NC(=O)[C@H](C)NC(=O)[C@@H](N)Cc1ccc(O)cc1)C(=O)N[C@@H](Cc1ccccc1)C(=O)N[C@H](C(=O)N[C@@H](CC(N)=O)C(=O)N[C@@H](CO)C(=O)N[C@@H](Cc1ccc(O)cc1)C(=O)N[C@@H](CCCNC(=N)N)C(=O)N[C@@H](CCCCN)C(=O)N[C@H](C(=O)N[C@@H](CC(C)C)C(=O)NCC(=O)N[C@@H](CCC(N)=O)C(=O)N[C@@H](CC(C)C)C(=O)N[C@@H](CO)C(=O)N[C@@H](C)C(=O)N[C@@H](CCCNC(=N)N)C(=O)N[C@@H](CCCCN)C(=O)N[C@@H](CC(C)C)C(=O)N[C@@H](CC(C)C)C(=O)N[C@@H](CCC(N)=O)C(=O)N[C@@H](CC(=O)O)C(=O)N[C@H](C(=O)N[C@@H](CCSC)C(=O)N[C@@H](CO)C(=O)N[C@@H](CCCNC(=N)N)C(=O)N[C@@H](CCC(N)=O)C(=O)N[C@@H](CCC(N)=O)C(=O)NCC(=O)N[C@@H](CCC(=O)O)C(=O)N[C@@H](CO)C(=O)N[C@@H](CC(N)=O)C(=O)N[C@@H](CCC(N)=O)C(=O)N[C@@H](CCC(=O)O)C(=O)N[C@@H](CCCNC(=N)N)C(=O)NCC(=O)N[C@@H](C)C(=O)N[C@@H](CCCNC(=N)N)C(=O)N[C@@H](C)C(=O)N[C@@H](CCCNC(=N)N)C(=O)N[C@@H](CC(C)C)C(N)=O)[C@@H](C)CC)C(C)C)[C@@H](C)O [GHRH, growth hormone–releasing hormone]",cAMP responses after deletion of the entire ECD,"GHRHR ΔECD; HEK293T, Fig. 1B",diminished cAMP responses
same,pEC50 of cAMP accumulation,"GHRHR ΔECD; Table S2, HEK293T, LANCE Ultra cAMP, 30 min RT, 0.5 mM IBMX, mean ± SEM, n = 3-5 in quadruplicate",5.53 ± 0.07
same,Emax of cAMP accumulation,"GHRHR ΔECD; Table S2, HEK293T, mean ± SEM, n = 3-5 in quadruplicate",111.27 ± 3.65 % WT GHRHR
same,ΔLog (τ/KA),"GHRHR ΔECD; Table S2, operational model, τ corrected by cell surface expression, relative to WT GHRHR, mean ± SEM",-4.55 ± 0.04
same,pEC50 of cAMP accumulation,SV1 F62A; [3],5.28 ± 0.08
same,Emax of cAMP accumulation,SV1 F62A; [4],105.64 ± 4.54 % WT GHRHR
same,ΔLog (τ/KA),SV1 F62A; [5],-4.41 ± 0.14
same,pEC50 of cAMP accumulation,SV1 L290A; [3],5.58 ± 0.08
same,Emax of cAMP accumulation,SV1 L290A; [4],109.60 ± 3.90 % WT GHRHR
same,ΔLog (τ/KA),SV1 L290A; [5],-4.56 ± 0.09
same,pEC50 of cAMP accumulation,SV1 L294A; [3],5.32 ± 0.10
same,Emax of cAMP accumulation,SV1 L294A; [4],106.26 ± 5.25 % WT GHRHR
same,ΔLog (τ/KA),SV1 L294A; [5],-4.96 ± 0.12
same,pEC50 of cAMP accumulation,SV1 S145A; [3],6.34 ± 0.09
same,Emax of cAMP accumulation,SV1 S145A; [4],101.87 ± 3.50 % WT GHRHR
same,ΔLog (τ/KA),SV1 S145A; [5],-4.22 ± 0.14
same,pEC50 of cAMP accumulation,SV1 Y69A; [3],5.44 ± 0.09
same,Emax of cAMP accumulation,SV1 Y69A; [4],104.75 ± 4.29 % WT GHRHR
same,ΔLog (τ/KA),SV1 Y69A; [5],-3.81 ± 0.10
same,β-arrestin 1 recruitment,[1],significantly increased the capability of GHRHR to recruit β-arrestin 1
same,β-arrestin 1/2 recruitments,[2]; F82A and F85A mutants of GHRHR,enhanced β-arrestin 1/2 recruitments
same,β-arrestin 1/2 recruitments,"[2]; any or all of four ECD residues (L34, L62, F82, F85) to alanine",enhanced β-arrestin 1/2 recruitments
same,cells in G1 phase,cell cycle; decreased from 46.6,32.8%
same,cells in G2/M phase,cell cycle; increased from 22.8,37.7%
same,potency of GHRH-induced cAMP accumulation,SV1 mutants,dramatically decreased the potency
